Measured values reported in PubChem BioAssay (NCI).
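Tested at 5 concentrations; 48 h exposure; 96-well plates; endpoints linearly interpolated, else capped at highest concentration. GI50 marks 50% less growth. TGI: total growth inhibition.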

Legend:
Test in all cases: NCI-60 cell line screen, 48 h
SK-MEL-5 melanoma = test system: SK-MEL-5 melanoma
ACHN renal = test system: ACHN renal
SR leukemia = test system: SR leukemia
NCI/ADR-RES ovarian = test system: NCI/ADR-RES ovarian
OVCAR-3 ovarian = test system: OVCAR-3 ovarian
HT29 colon = test system: HT29 colon
CCRF-CEM leukemia = test system: CCRF-CEM leukemia
OVCAR-4 ovarian = test system: OVCAR-4 ovarian
A498 renal = test system: A498 renal
HCT-15 colon = test system: HCT-15 colon
TK-10 renal = test system: TK-10 renal
DU-145 prostate = test system: DU-145 prostate
NCI-H226 lung = test system: NCI-H226 lung
RPMI-8226 leukemia = test system: RPMI-8226 leukemia
DMS 114 small cell lung = test system: DMS 114 small cell lung
COLO 205 colon = test system: COLO 205 colon

Cc1ccc(S(=O)(=O)OC2C(C3COC(C)(C)O3)OC3OC(C)(C)OC32)cc1 (stereo not given)
TGI (SK-MEL-5 melanoma): > 100 µM | TGI (ACHN renal): > 100 µM | TGI (SR leukemia): > 100 µM | TGI (NCI/ADR-RES ovarian): > 100 µM | TGI (OVCAR-3 ovarian): > 100 µM | TGI (HT29 colon): > 100 µM | TGI (CCRF-CEM leukemia): > 100 µM | TGI (OVCAR-4 ovarian): > 100 µM | TGI (A498 renal): > 100 µM | TGI (HCT-15 colon): > 100 µM | TGI (TK-10 renal): > 100 µM | TGI (DU-145 prostate): > 100 µM | TGI (NCI-H226 lung): > 100 µM

Clc1c(Cl)c2c(Cl)c(Cl)c1C[P+](c1ccccc1)(c1ccccc1)CC[P+](c1ccccc1)(c1ccccc1)Cc1c(Cl)c(Cl)c(c(Cl)c1Cl)C[P+](c1ccccc1)(c1ccccc1)CC[P+](c1ccccc1)(c1ccccc1)C2
TGI (SK-MEL-5 melanoma): 3.13 µM | TGI (ACHN renal): 17.6 µM | TGI (OVCAR-3 ovarian): 8.97 µM | TGI (HT29 colon): 10.3 µM | TGI (RPMI-8226 leukemia): 4.78 µM | TGI (CCRF-CEM leukemia): 9.63 µM | TGI (OVCAR-4 ovarian): 8.59 µM | TGI (A498 renal): 24.4 µM | TGI (DMS 114 small cell lung): 3.7 µM | TGI (COLO 205 colon): 2.89 µM | TGI (HCT-15 colon): 24.6 µM | TGI (TK-10 renal): 9.41 µM | TGI (NCI-H226 lung): 20.2 µM

Cc1ccc(-c2csc(=Nc3c(C)n(C)n(-c4ccccc4)c3=O)n2CCO)cc1
TGI (ACHN renal): > 100 µM | TGI (SR leukemia): > 100 µM | TGI (NCI/ADR-RES ovarian): > 100 µM | TGI (OVCAR-3 ovarian): > 100 µM | TGI (RPMI-8226 leukemia): > 100 µM | TGI (CCRF-CEM leukemia): > 100 µM | TGI (OVCAR-4 ovarian): > 100 µM | TGI (A498 renal): > 100 µM | TGI (HCT-15 colon): > 100 µM | TGI (TK-10 renal): > 100 µM | TGI (NCI-H226 lung): > 100 µM

Cn1c(-c2ccc(/C=N\N3CCN(/N=C/c4ccc(-c5c[n+]6ccsc6n5C)cc4)CC3)cc2)c[n+]2ccsc12
TGI (SK-MEL-5 melanoma): 84.6 µM | TGI (ACHN renal): > 100 µM | TGI (SR leukemia): > 100 µM | TGI (NCI/ADR-RES ovarian): > 100 µM | TGI (OVCAR-3 ovarian): > 100 µM | TGI (HT29 colon): > 100 µM | TGI (RPMI-8226 leukemia): 89.4 µM | TGI (CCRF-CEM leukemia): > 100 µM | TGI (OVCAR-4 ovarian): > 100 µM | TGI (A498 renal): 82.3 µM | TGI (COLO 205 colon): 36.3 µM | TGI (HCT-15 colon): > 100 µM | TGI (TK-10 renal): > 100 µM | TGI (DU-145 prostate): > 100 µM | TGI (NCI-H226 lung): > 100 µM

O=[n+]1c2ccccc2n([O-])c2cc(Br)ccc21
TGI (SK-MEL-5 melanoma): 39.5 µM | TGI (ACHN renal): 17.4 µM | TGI (SR leukemia): 5.21 µM | TGI (NCI/ADR-RES ovarian): 68.9 µM | TGI (OVCAR-3 ovarian): 9.04 µM | TGI (HT29 colon): 39.1 µM | TGI (RPMI-8226 leukemia): 61.4 µM | TGI (CCRF-CEM leukemia): > 100 µM | TGI (OVCAR-4 ovarian): 45.2 µM | TGI (A498 renal): 40.2 µM | TGI (COLO 205 colon): 57.2 µM | TGI (HCT-15 colon): 32 µM | TGI (TK-10 renal): 72.9 µM | TGI (DU-145 prostate): 98.9 µM | TGI (NCI-H226 lung): 48.5 µM

CC(C)[C@](O)(C(=O)OCC1CC[N+]2([O-])CC[C@@H](O)C12)[C@H](C)O (stereo not given in full)
TGI (SK-MEL-5 melanoma): > 375 µM | TGI (NCI/ADR-RES ovarian): > 375 µM | TGI (OVCAR-3 ovarian): > 375 µM | TGI (HT29 colon): > 375 µM | TGI (RPMI-8226 leukemia): > 375 µM | TGI (CCRF-CEM leukemia): > 375 µM | TGI (OVCAR-4 ovarian): > 375 µM | TGI (A498 renal): > 59.4 µM | TGI (DMS 114 small cell lung): > 375 µM | TGI (COLO 205 colon): > 375 µM | TGI (HCT-15 colon): > 375 µM | TGI (NCI-H226 lung): > 375 µM

CC#C[I+]c1ccccc1
TGI (SK-MEL-5 melanoma): 48.5 µM | TGI (ACHN renal): 32 µM | TGI (SR leukemia): 36.5 µM | TGI (OVCAR-3 ovarian): 33.9 µM | TGI (HT29 colon): 34.5 µM | TGI (CCRF-CEM leukemia): 18.7 µM | TGI (OVCAR-4 ovarian): 46.3 µM | TGI (A498 renal): > 100 µM | TGI (DMS 114 small cell lung): 26.3 µM | TGI (COLO 205 colon): 26 µM | TGI (TK-10 renal): 30.4 µM | TGI (NCI-H226 lung): > 100 µM

COc1cc2c3c(n(CCCNCCCNCCCn4c5c(c6ccccc6c4=O)C(=O)c4ccccc4-5)c(=O)c2cc1OC)-c1cc2c(cc1C3=O)OCO2
GI50 (SK-MEL-5 melanoma): 0.0298 µM | TGI (SK-MEL-5 melanoma): 0.634 µM | GI50 (ACHN renal): < 0.01 µM | TGI (ACHN renal): < 0.0219 µM | GI50 (NCI/ADR-RES ovarian): > 40.5 µM | TGI (NCI/ADR-RES ovarian): > 67.1 µM | GI50 (DU-145 prostate): < 0.01 µM | TGI (DU-145 prostate): 0.213 µM

CCCCN1C(=O)NC(Cc2ccccc2)C1=O (stereo not given)
TGI (ACHN renal): > 100 µM | TGI (SR leukemia): > 100 µM | TGI (HT29 colon): > 100 µM | TGI (DMS 114 small cell lung): > 100 µM | TGI (TK-10 renal): > 100 µM | TGI (NCI-H226 lung): > 100 µM

CC(C)(C)C(=O)C(C(c1ccccc1)N1CCOCC1)N1CCOCC1 (stereo not given)
TGI (ACHN renal): > 100 µM | TGI (SR leukemia): > 100 µM | TGI (NCI/ADR-RES ovarian): > 100 µM | TGI (OVCAR-3 ovarian): > 100 µM | TGI (HT29 colon): > 100 µM | TGI (RPMI-8226 leukemia): > 100 µM | TGI (CCRF-CEM leukemia): > 100 µM | TGI (OVCAR-4 ovarian): > 100 µM | TGI (A498 renal): > 100 µM | TGI (HCT-15 colon): > 100 µM | TGI (TK-10 renal): > 100 µM | TGI (DU-145 prostate): > 100 µM

CCO[C@]12C[C@H](OC)[C@@]3(O)CC(C1[C@H]3O)C13C4C2[C@H](OC)C1[C@](COC)(CN4CC)[C@H](O)C[C@@H]3OC (stereo not given in full)
TGI (SK-MEL-5 melanoma): > 100 µM | TGI (ACHN renal): > 100 µM | TGI (SR leukemia): > 100 µM | TGI (HT29 colon): > 100 µM | TGI (RPMI-8226 leukemia): > 100 µM | TGI (CCRF-CEM leukemia): > 100 µM | TGI (OVCAR-4 ovarian): > 100 µM | TGI (DMS 114 small cell lung): > 100 µM | TGI (COLO 205 colon): > 100 µM | TGI (HCT-15 colon): > 100 µM | TGI (TK-10 renal): > 100 µM | TGI (NCI-H226 lung): > 100 µM

COc1ccc(N2C(=O)C3c4[nH]c5cccc(C)c5c4C4CCC(C(C)(C)C)CC4C3C2=O)cc1 (stereo not given)
TGI (SK-MEL-5 melanoma): > 10 µM | TGI (ACHN renal): > 10 µM | TGI (SR leukemia): > 10 µM | TGI (NCI/ADR-RES ovarian): > 10 µM | TGI (OVCAR-3 ovarian): > 10 µM | TGI (HT29 colon): > 10 µM | TGI (RPMI-8226 leukemia): > 10 µM | TGI (OVCAR-4 ovarian): 2.26 µM | TGI (A498 renal): > 10 µM | TGI (COLO 205 colon): > 10 µM | TGI (HCT-15 colon): > 10 µM | TGI (TK-10 renal): > 10 µM | TGI (DU-145 prostate): > 10 µM | TGI (NCI-H226 lung): > 10 µM

CCCCCCCCCCCCCCCCOCC(COP(=O)([O-])OCC[N+](C)(C)C)OCCCCCCCCCCCCCCCC (stereo not given)
TGI (SK-MEL-5 melanoma): > 100 µM | TGI (NCI/ADR-RES ovarian): > 100 µM | TGI (OVCAR-3 ovarian): > 100 µM | TGI (HT29 colon): > 100 µM | TGI (RPMI-8226 leukemia): > 100 µM | TGI (CCRF-CEM leukemia): > 100 µM | TGI (OVCAR-4 ovarian): > 100 µM | TGI (A498 renal): > 100 µM | TGI (DMS 114 small cell lung): > 100 µM | TGI (COLO 205 colon): > 100 µM | TGI (HCT-15 colon): > 100 µM | TGI (NCI-H226 lung): > 100 µM
